The values that follow come from ChEMBL document CHEMBL6153127, “Cyclodepsipeptides and Fatty Acid Lactones from the Freshwater-Derived Fungus, Talaromyces gwangjuensis, and Their Potential as Autophagy Activators” (J Nat Prod, 2025).

The source made the active and inactive calls. No cut-off for these calls is given here.

Holding throughout (format): functional, cell-based
In experiment [1] the test system is HEK293-A. In words: Regulation of autophagy in HEK293-A cells expressing GFP-tagged LC3 assessed as increase in green fluorescence at 10 uM incubated for 24 hrs by confocal microscopy. The conditions noted are these: Homo sapiens.
The test system of experiment [2] is HEK293-A. Description: Cytotoxicity against HEK293-A cells expressing GFP-tagged LC3 assessed as cell viability at 10 uM incubated for 24 hrs by MTT assay. Particulars: Homo sapiens.
The subject of experiment [3] is IMR-90. Description: Induction of autophagy in human IMR-90 cells expressing GFP-mCherry-tagged LC3 assessed as increase in red puncta at 10 uM incubated for 24 hrs by DAPI staining based confocal microscopy.
Experiment [4] deals with IMR-90. Description: Induction of autophagic flux in human IMR-90 cells expressing GFP-mCherry-tagged LC3 assessed as accumulation of LC3B-II incubated for 6 hrs in presence of chloroquine by Western blot analysis. The conditions noted are these: dose 1-20 µM.

Consider `CCCCCCCC[C@@H](C)[C@@H]1OC(=O)[C@H](CO)NC(=O)[C@H](C(=O)c2c[nH]c3ccccc23)NC(=O)[C@@H](CCC(=O)OCC)NC(=O)[C@H]1C`, for which, in experiment [1], the result was Active. Besides, the outcome in experiment [2] was inactive.

As for `CCCCCCCC[C@@H](C)[C@@H]1OC(=O)[C@H](CO)NC(=O)/C(=C/c2c[nH]c3ccccc23)NC(=O)[C@@H](CCC(=O)O)NC(=O)[C@H]1C`, the outcome in experiment [3] and in experiment [1] was Active. In experiment [2], the outcome was inactive.

For `O=C(c1c[nH]c2ccccc12)C(O)CO` (stereo not drawn), in experiment [2], the result was inactive.

With `CCCCCCCC[C@@H](COC(C)=O)[C@@H]1OC(=O)[C@H](CO)NC(=O)[C@H](C(=O)c2c[nH]c3ccccc23)NC(=O)[C@@H](CCC(=O)OCC)NC(=O)[C@H]1C`, in experiment [1], the outcome was Active. For the same compound, the outcome in experiment [2] was inactive.

With `CCCCCCCC[C@@H](C)[C@@H]1OC(=O)[C@H](CO)NC(=O)[C@H](C(=O)c2c[nH]c3ccccc23)NC(=O)[C@@H](CCC(=O)O)NC(=O)[C@H]1C`, the result in experiment [1] was Active. The outcome in experiment [2] was inactive.

For the compound `CCCCCCCC[C@@H]1COC(=O)[C@H](CO)NC(=O)[C@H](C(=O)c2c[nH]c3ccccc23)NC(=O)[C@@H](CCC(=O)O)NC(=O)[C@@H](C)[C@H]1O`, the outcome in experiment [1] was Active. The result in experiment [2] was inactive.

In the case of `CCCCCCCC[C@@H](C)[C@@H]1OC(=O)[C@H](CO)NC(=O)[C@H](Cc2c[nH]c3ccccc23)NC(=O)[C@@H](CCC(=O)O)NC(=O)[C@H]1C`, the result in experiment [3] and in experiment [1] was Active. Besides, in experiment [2], the result was inactive.

For `CCCCCCCC[C@@H](COC(C)=O)[C@@H]1OC(=O)[C@H](CO)NC(=O)[C@H](C(=O)c2c[nH]c3ccccc23)NC(=O)[C@@H](CCC(=O)O)NC(=O)[C@H]1C`, the outcome in experiment [3] and in experiment [1] was Active. In addition, the Activity entry in experiment [4] is “Dose-dependent-effect”. For the same compound, the outcome in experiment [2] was inactive.

As to `CCCCCCCCCCCC[C@H](O)[C@]1(O)[C@@H](COC)C(=O)O[C@H]1C(=O)O`, in experiment [2], the result was inactive.

Consider `C=C1C(=O)O[C@@H](C(=O)O)[C@@H]1CCCCCCCCCCC`, for which the result in experiment [2] was Active.

On to `C=C1C(=O)O[C@H](CCCCCCCCCC)[C@H]1[C@@H](O)C(=O)OCC`, for which, in experiment [2], the outcome was inactive.

Consider `CCCCCCCCCC[C@H](O)C1=C(COCC)C(=O)OC1`, for which the result in experiment [2] was inactive.
